Experimental findings from ChEMBL document CHEMBL3407456, “Glycosylated enfuvirtide: a long-lasting glycopeptide with potent anti-HIV activity” (J Med Chem, 2015) are described below.

The nature of series [1]: Cytotoxicity against human TZM-bl cells assessed as reduction cell viability at <12.5 uM after 2 days by XTT assay. It is filed as cell-based. The note with it: 48 h.
Another series addresses GP41 (Human immunodeficiency virus 1, UniProt Q76270). Briefly: Binding affinity to HIV1 gp41 (46 residues) by surface plasmon resonance method.
Series [2] is described as follows: Plasma concentration in Sprague-Dawley rat at […], sc after 6 hrs. The format is ADME, organism-based.
The subject of series [3] is Human immunodeficiency virus 1. The experiment in a line: Antiviral activity against HIV-1 SF33 infected in TZM-bl cells after 2 days by luciferase reporter gene assay. The note with it: Human immunodeficiency virus 1, SF33, TZM-bl, 48 h. The format is functional, organism-based.
Series [4] has as its target GP41 (Human immunodeficiency virus 1) (UniProt Q76270). Briefly: Binding affinity to HIV1 gp41 (46 residues) assessed as effect on protein secondary structure measured as alpha-helicity in PBS buffer at pH 7.2 by circular dichroism assay (reference value: 117 %).
Series [5] in a line: Half life in Sprague-Dawley rat at […], sc after 6 hrs. It is filed as ADME, organism-based. The note with it: in vivo.

For enfuvirtide, the results for the Activity entry in series [1] and in series [4] were “Non-toxic” and 67%, respectively. On GP41, this substance yielded a Kd of 182 nM. For the same substance, the concentration at 6 h in series [2] is below 1000 nM. Further, in series [3], the EC50 turned out to be 3 nM. Further, in series [3], the EC90 stood at 23 nM. The substance further had a half-life at 6 h in series [5] of 1.5 h.
